This note sets out measurements from patent US20260356830A1, “COMPOUNDS FOR MODULATING RET PROTEIN” (Bristol-Myers Squibb Company, priority 2022, published 2026).

The target of the test is T1, CCDC6-RET (Homo sapiens, UniProt P07949+Q16204+Q96SW2).
T1 construct: CCDC6 (natural N-terminal fusion partner, UniProt Q16204); endogenous in cells; host or cells: TPC-1 (parental, papillary thyroid carcinoma)
Nature of the test: Cellular RET degradation, AlphaLISA, TPC-1 cell line. The note with it: for Dmax: TPC1, human, 24 h, read-out: Cell Density TPC-1/CCDC6-RET Ymax %; for DC50: read-out: Cell Density TPC-1/CCDC6-RET DC50, half-maximal degradation concentration, TPC-1 (CCDC6-RET), 24 hrs. Type of test: cell-based. An outline of the steps:
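TPC-1 papillary thyroid carcinoma cells (endogenous CCDC6-RET) in DMEM with 2% FBS, compound-treated 24 h at 37 °C. RET in lysates quantified by AlphaLISA luminescence, normalized to media-only and DMSO wells; DC50 and maximal degradation from 4-parameter logistic fit.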

Some results are limits rather than exact numbers.

T1 sequence (Q16204+P07949 fused): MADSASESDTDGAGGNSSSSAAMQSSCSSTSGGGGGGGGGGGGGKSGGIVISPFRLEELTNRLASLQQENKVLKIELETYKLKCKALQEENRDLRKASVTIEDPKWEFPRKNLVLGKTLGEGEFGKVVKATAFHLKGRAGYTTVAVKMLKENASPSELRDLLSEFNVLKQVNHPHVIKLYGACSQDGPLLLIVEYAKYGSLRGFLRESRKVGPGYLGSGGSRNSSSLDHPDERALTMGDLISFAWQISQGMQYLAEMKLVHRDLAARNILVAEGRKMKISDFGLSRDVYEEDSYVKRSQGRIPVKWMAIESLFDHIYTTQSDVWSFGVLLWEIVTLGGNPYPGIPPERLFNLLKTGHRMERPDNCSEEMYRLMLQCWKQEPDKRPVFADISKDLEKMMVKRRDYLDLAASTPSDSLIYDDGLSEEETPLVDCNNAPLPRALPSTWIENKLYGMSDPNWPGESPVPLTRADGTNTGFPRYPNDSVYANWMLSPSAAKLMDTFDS
T1 sequence (Q96SW2 whole entry, the tested form may be a part): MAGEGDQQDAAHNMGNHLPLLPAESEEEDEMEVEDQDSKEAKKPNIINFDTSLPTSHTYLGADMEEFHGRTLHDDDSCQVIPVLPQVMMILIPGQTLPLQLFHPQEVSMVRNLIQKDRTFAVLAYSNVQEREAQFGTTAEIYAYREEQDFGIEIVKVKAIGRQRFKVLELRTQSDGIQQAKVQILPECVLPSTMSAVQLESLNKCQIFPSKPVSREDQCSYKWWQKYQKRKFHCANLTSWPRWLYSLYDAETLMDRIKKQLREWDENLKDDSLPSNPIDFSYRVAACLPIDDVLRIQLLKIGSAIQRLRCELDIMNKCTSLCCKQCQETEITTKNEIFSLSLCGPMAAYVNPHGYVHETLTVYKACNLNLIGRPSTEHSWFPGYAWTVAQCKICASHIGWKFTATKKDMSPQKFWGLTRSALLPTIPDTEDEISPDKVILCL
T1 sequence (Q16531 whole entry partner, the tested form may be a part): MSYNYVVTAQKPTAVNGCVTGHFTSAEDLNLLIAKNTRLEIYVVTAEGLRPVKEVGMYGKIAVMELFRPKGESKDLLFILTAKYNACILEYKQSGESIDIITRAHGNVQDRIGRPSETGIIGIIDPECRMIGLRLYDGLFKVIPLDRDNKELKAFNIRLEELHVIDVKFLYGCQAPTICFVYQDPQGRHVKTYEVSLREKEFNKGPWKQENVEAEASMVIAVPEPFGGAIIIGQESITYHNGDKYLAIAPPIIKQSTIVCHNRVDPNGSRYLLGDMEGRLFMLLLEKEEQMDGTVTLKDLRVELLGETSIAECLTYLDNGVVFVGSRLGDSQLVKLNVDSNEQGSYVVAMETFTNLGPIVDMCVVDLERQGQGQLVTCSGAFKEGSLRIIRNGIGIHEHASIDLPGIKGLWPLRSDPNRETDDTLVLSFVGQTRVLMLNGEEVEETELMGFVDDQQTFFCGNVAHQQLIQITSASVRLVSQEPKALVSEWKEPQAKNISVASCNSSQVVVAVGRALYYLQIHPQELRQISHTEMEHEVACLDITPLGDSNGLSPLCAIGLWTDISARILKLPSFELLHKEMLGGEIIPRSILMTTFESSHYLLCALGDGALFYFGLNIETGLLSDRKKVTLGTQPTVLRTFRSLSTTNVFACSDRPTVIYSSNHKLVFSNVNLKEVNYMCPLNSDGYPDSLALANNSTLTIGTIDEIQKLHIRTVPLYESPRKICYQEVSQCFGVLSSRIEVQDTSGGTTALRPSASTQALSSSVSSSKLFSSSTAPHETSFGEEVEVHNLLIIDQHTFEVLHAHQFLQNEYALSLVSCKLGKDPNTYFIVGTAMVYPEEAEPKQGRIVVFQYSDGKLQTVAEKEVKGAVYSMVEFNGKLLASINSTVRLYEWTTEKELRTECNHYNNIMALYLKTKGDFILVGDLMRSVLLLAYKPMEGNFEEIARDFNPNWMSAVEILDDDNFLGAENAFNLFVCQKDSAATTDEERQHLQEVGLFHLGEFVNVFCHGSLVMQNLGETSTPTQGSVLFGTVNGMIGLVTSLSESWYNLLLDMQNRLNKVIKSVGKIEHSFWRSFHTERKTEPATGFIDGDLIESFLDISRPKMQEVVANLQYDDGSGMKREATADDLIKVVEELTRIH

Consider `CCOc1cc(-c2ccc(N3CCC(CN4CCN(C(=O)CCOCCNc5ccc6c(N7CCC(=O)NC7=O)nn(C)c6c5)CC4)(NC(=O)c4cc(F)ccc4F)CC3)nc2)c2c(C#N)cnn2c1` [Example 105, N-[1-(5-{3-cyano-6-ethoxypyrazolo[1,5-a]pyridin-4-yl}pyridin-2-yl)-4-({4-[3-(2-{[3-(2,4-dioxo-1,3-diazinan-1-yl)-1-methyl-1H-indazol-6-yl]amino}ethoxy)propanoyl]piperazin-1-yl}methyl)piperidin-4-yl]-2,5-difluorobenzamide], for which the Dmax was 60 to 90% and the DC50 was in the range of 2 to 10 nM.
In the same order, the values of `CCOc1cc(-c2ccc(N3CCC(CN4CCN(C(=O)CCCCCCN5CCN(c6ccc7c(N8CCC(=O)NC8=O)nn(C)c7c6)CC5)CC4)(NC(=O)c4cc(F)ccc4F)CC3)nc2)c2c(C#N)cnn2c1` [Example 41, N-(1-(5-(3-cyano-6-ethoxypyrazolo[1,5-a]pyridin-4-yl)pyridin-2-yl)-4-((4-(7-(4-(3-(2,4-dioxotetrahydropyrimidin-1(2H)-yl)-1-methyl-1H-indazol-6-yl)piperazin-1-yl)heptanoyl)piperazin-1-yl)methyl)piperidin-4-yl)-2,5-difluorobenzamide] are greater than 90% and less than 2 nM.
For the molecule `CCOc1cc(-c2ccc(N3CCC(CN4CCN(CCOCCC(=O)N5CCN(c6ccc7c(c6)CN(C6CCC(=O)NC6=O)C7=O)CC5)CC4)(NC(=O)c4cc(F)ccc4F)CC3)nc2)c2c(C#N)cnn2c1` (stereo not shown) [Example 100, N-[1-(5-{3-cyano-6-ethoxypyrazolo[1,5-a]pyridin-4-yl}pyridin-2-yl)-4-({4-[2-(3-{4-[2-(2,6-dioxopiperidin-3-yl)-1-oxo-2,3-dihydro-1H-isoindol-5-yl]piperazin-1-yl}-3-oxopropoxy)ethyl]piperazin-1-yl}methyl)piperidin-4-yl]-2,5-difluorobenzamide], the Dmax was greater than 90% and the DC50 was 2 to 10 nM.
For `CCOc1cc(-c2ccc(N3CCC(COCCN4CCN(C(=O)CCN5CCN(c6ccc7c(c6)C(=O)N(C6CCC(=O)NC6=O)C7)CC5)CC4)(NC(=O)c4cc(F)ccc4F)CC3)nc2)c2c(C#N)cnn2c1` (stereo not shown) [Example 33, N-[1-[5-(3-cyano-6-ethoxy-pyrazolo[1,5-a]pyridin-4-yl)-2-pyridyl]-4-[2-[4-[3-[4-[2-(2,6-dioxo-3-piperidyl)-3-oxo-isoindolin-5-yl]piperazin-1-yl]propanoyl]piperazin-1-yl]ethoxymethyl]-4-piperidyl]-2,5-difluoro-benzamide], the Dmax was in the range of 60 to 90% and the DC50 is 2 to 10 nM.
For the molecule `CCOc1cc(-c2ccc(N3CCC(CN4CCN(C(=O)CCCCCCCCNc5ccc6c(C7CCC(=O)NC7=O)nn(C)c6c5)CC4)(NC(=O)c4cc(F)ccc4F)CC3)nc2)c2c(C#N)cnn2c1` (stereo not shown) [Example 25, N-[1-(5-{3-cyano-6-ethoxypyrazolo[1,5-a]pyridin-4-yl}pyridin-2-yl)-4-{[4-(9-{[3-(2,6-dioxopiperidin-3-yl)-1-methyl-1H-indazol-6-yl]amino}nonanoyl)piperazin-1-yl]methyl}piperidin-4-yl]-2,5-difluorobenzamide], the Dmax is greater than 90% and the DC50 was in the range of 2 to 10 nM.
Consider `CCOc1cc(-c2ccc(N3CCC(CN(C(=O)CCCCCCN4CCC(c5ccc6c(c5)C(=O)N(C5CCC(=O)NC5=O)C6)CC4)C(C)C)(NC(=O)c4cc(F)ccc4F)CC3)nc2)c2c(C#N)cnn2c1` (stereo not shown) [Example 171, N-[1-(5-{3-cyano-6-ethoxypyrazolo[1,5-a]pyridin-4-yl}pyridin-2-yl)-4-[(7-{4-[2-(2,6-dioxopiperidin-3-yl)-3-oxo-2,3-dihydro-1H-isoindol-5-yl]piperidin-1-yl}-N-(propan-2-yl)heptanamido)methyl]piperidin-4-yl]-2,5-difluorobenzamide], for which the Dmax was greater than 90% and the DC50 is 2 to 10 nM.
As for `CCOc1cc(-c2ccc(N3CCC(CN4CCN(CC5CCN(C(=O)c6ccc7c(c6)C(=O)N(C6CCC(=O)NC6=O)C7)CC5)CC4)(NC(=O)c4cc(F)ccc4F)CC3)nc2)c2c(C#N)cnn2c1` (stereo not shown) [Example 110, N-[1-(5-{3-cyano-6-ethoxypyrazolo[1,5-a]pyridin-4-yl}pyridin-2-yl)-4-{[4-({1-[2-(2,6-dioxopiperidin-3-yl)-3-oxo-2,3-dihydro-1H-isoindole-5-carbonyl]piperidin-4-yl}methyl)piperazin-1-yl]methyl}piperidin-4-yl]-2,5-difluorobenzamide], the Dmax was in the range of 60 to 90% and the DC50 fell in the range of 2 to 10 nM.
The matching figures for `CCOc1cc(-c2ccc(N3CCC(CN4CCC(CN5CCN(c6ccc7c(c6)CN(C6CCC(=O)NC6=O)C7=O)CC5)CC4)(NC(=O)c4cc(F)ccc4F)CC3)nc2)c2c(C#N)cnn2c1` (stereo not shown) [Example 69, N-(1-(5-(3-cyano-6-ethoxypyrazolo[1,5-a]pyridin-4-yl)pyridin-2-yl)-4-((4-((4-(2-(2,6-dioxopiperidin-3-yl)-1-oxoisoindolin-5-yl)piperazin-1-yl)methyl)piperidin-1-yl)methyl)piperidin-4-yl)-2,5-difluorobenzamide]: greater than 90% and less than 2 nM.
In the case of `CCOc1cc(-c2ccc(N3CCC(CN4CCN(C(=O)CCCCCCNC(=O)COc5cccc6c5CN(C5CCC(=O)NC5=O)C6=O)CC4)(NC(=O)c4cc(F)ccc4F)CC3)nc2)c2c(C#N)cnn2c1` (stereo not shown) [Example 27, N-[1-(5-{3-cyano-6-ethoxypyrazolo[1,5-a]pyridin-4-yl}pyridin-2-yl)-4-({4-[7-(2-{[2-(2,6-dioxopiperidin-3-yl)-1-oxo-2,3-dihydro-1H-isoindol-4-yl]oxy}acetamido)heptanoyl]piperazin-1-yl}methyl)piperidin-4-yl]-2,5-difluorobenzamide], the Dmax fell in the range of 60 to 90% and the DC50 was 2 to 10 nM.
Take `CCOc1cc(-c2ccc(N3CCC(NC(=O)c4cc(F)ccc4F)(C(=O)NCCCCN4CCN(c5ccc6c(c5)C(=O)N(C5CCC(=O)NC5=O)C6)CC4)CC3)nc2)c2c(C#N)cnn2c1` (stereo not shown) [Example 159, 1-(5-{3-cyano-6-ethoxypyrazolo[1,5-a]pyridin-4-yl}pyridin-2-yl)-4-(2,5-difluorobenzamido)-N-(4-{4-[2-(2,6-dioxopiperidin-3-yl)-3-oxo-2,3-dihydro-1H-isoindol-5-yl]piperazin-1-yl}butyl)piperidine-4-carboxamide]: the Dmax was 60 to 90% and the DC50 lay in the range of 2 to 10 nM.
As to `CCOc1cc(-c2ccc(N3CCC(CN4CCN(C5CC6(CC(C(=O)N7CCC(c8ccc9c(c8)CN(C8CCC(=O)NC8=O)C9=O)CC7)C6)C5)CC4)(NC(=O)c4cc(F)ccc4F)CC3)nc2)c2c(C#N)cnn2c1` (stereo not shown) [Example 95, N-[1-(5-{3-cyano-6-ethoxypyrazolo[1,5-a]pyridin-4-yl}pyridin-2-yl)-4-{[4-(6-{4-[2-(2,6-dioxopiperidin-3-yl)-1-oxo-2,3-dihydro-1H-isoindol-5-yl]piperidine-1-carbonyl}spiro[3.3]heptan-2-yl)piperazin-1-yl]methyl}piperidin-4-yl]-2,5-difluorobenzamide], the Dmax was 60 to 90% and the DC50 was in the range of 2 to 10 nM.
